# Source: patent publication US9567325B2, “Carboxamide compounds and their use as calpain inhibitors” (AbbVie Deutschland GmbH & Co. KG, priority 2009, dated 2017)
# How the values were obtained:
# [1] = Cytosolic clearance in human liver cytosol; assay type: in vitro ADME; details: 0.5 μM compound, 1 mg/ml human liver cytosol, 37° C., pH 7.5; read-out: human cytCL (cytosolic clearance)
# [2] = molecular target: T1, calpain-1 isolated from human erythrocytes (Homo sapiens, UniProt P07384); experiment: Calpain I enzyme inhibition in vitro, kinetic fluorescence assay; assay type: biochemical; details: apparent Ki calculated from IC50 by Cheng-Prussoff; 100 μM Suc-Leu-Tyr-AMC, pH 7.3, room temperature
# T1 construct: 20 nM calpain-1-isolated from human erythrocytes (Calbiochem #208713); purchased Calbiochem 208713; host or cells: human erythrocytes (natural source)
# T1 sequence (P07384 1-714): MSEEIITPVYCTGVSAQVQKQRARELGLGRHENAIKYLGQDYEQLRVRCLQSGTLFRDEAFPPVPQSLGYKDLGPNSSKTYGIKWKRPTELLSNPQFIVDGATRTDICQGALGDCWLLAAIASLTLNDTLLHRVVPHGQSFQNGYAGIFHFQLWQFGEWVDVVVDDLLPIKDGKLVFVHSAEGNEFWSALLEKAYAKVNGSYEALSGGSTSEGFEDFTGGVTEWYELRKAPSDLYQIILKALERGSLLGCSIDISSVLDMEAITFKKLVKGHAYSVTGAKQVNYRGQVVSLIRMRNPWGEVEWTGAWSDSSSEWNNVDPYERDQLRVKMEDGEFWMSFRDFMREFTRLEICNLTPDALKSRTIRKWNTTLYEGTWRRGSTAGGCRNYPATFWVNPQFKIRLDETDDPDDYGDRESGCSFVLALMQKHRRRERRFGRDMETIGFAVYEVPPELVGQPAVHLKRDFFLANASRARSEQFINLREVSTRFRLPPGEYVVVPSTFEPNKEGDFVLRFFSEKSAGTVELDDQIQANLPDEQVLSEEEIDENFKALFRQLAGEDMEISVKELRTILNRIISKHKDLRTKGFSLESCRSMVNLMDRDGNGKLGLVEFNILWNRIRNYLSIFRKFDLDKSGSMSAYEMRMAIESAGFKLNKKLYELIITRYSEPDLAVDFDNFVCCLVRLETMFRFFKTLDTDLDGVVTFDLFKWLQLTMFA
# T1 sequence (P04632 1-268 partner): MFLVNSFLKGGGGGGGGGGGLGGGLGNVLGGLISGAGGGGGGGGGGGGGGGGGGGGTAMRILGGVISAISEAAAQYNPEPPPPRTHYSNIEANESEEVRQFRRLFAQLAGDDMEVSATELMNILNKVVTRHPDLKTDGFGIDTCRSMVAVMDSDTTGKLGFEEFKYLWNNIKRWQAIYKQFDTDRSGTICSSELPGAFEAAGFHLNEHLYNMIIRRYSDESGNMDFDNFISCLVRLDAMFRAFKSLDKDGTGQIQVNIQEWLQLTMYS
# Description: (§1) The following solutions and buffers were employed: • HBS (for 40 ml): 800 μl 1M HEPES; 2.16 ml 100 mM KCl; 4.8 ml 1M NaCl; 3.59 ml 5% glucose; 60 μl 1M MgSO4; 400 μl 100 mM Na pyruvate, 28.19 ml water; pH 7.2-7.5. • lysis buffer (for 20 ml): 400 μl 1M Tris pH 8.2; 2.74 ml 1M NaCl; 520 μl 0.5M EDTA; 2 ml 10% triton X-100; 0.8 ml (=1:25) CompletePlus (1 tablet/2 ml H2O); 200 μl 100 mM Pefabloc; 13.34 ml water, pH 8.2. • TBST (10×) (for 11): 100 mM Tris (12.1 g); 1.5M NaCl (87 g); 1% Tween 20 (10 g), adjusted to pH 8. I Enzyme Inhibition In Vitro: • Testing for blockade of the corresponding enzymic activities was carried out by means of kinetic fluorescence assays (excitation 390 nm, emission 460 nm). • Apparent Ki values were calculated from the experimentally determined IC50 values by the Cheng-Prussoff relation assuming a reversible competitive enzyme inhibition. The Km values of the substrates used under the assay conditions indicated above were: 90 μM (Z-Phe-Arg-AMC, cathepsin B), 10 μM (Z-Gly-Pro-Arg-AMC, cathepsin K), 2 μM (Z-Phe-Arg-AMC, cathepsin L), and 30 μM (Z-Val-Val-Arg-AMC, cathepsin S). • The indicated Ki values are averages of the inhibition constants calculated on the basis of 2 to 4 independent dose-effect plots. • The following assays were used: • 1. Calpain I: • 20 nM calpain-1-isolated from human erythrocytes (Calbiochem #208713), 100 μM Suc-Leu-Tyr-AMC (Bachem #1-1355) as substrate in buffer with 62 mM imidazole, 0.3 mM CaCl2, 0.10% CHAPS, 0.05% BSA, 1 mM DTT at pH 7.3 and room temperature. • 2. Cathepsin B: • 0.25 nM cathepsin B—isolated from human liver (Calbiochem #219362), 100 μM Z-Phe-Arg-AMC (Bachem #1-1160) as substrate 50 mM MES, 2 mM EDTA, 0.05% Brij 35, 2.5 mM L-cysteine, pH 6.0, room temperature. • 3. Cathepsin K: • 3 nM cathepsin K-activated from recombinant human procathepsin K from E. coli (Calbiochem #342001), 10 μM Z-Gly-Pro-Arg-AMC (Biomol #P-142) as substrate in 50 mM MES, 2 mM EDTA, 0.05% Brij 35, 2.5 mM L-cysteine, pH 6.0, room temperature. • 4. Cathepsin L: • 1 nM cathepsin L—isolated from human liver (Calbiochem #219402), 2 μM Z-Phe-Arg-AMC (Bachem #1-1160) as substrate in 50 mM MES, 2 mM EDTA, 0.05% Brij 35, 2.5 mM L-cysteine, pH 6.0, room temperature. • 5. Cathepsin S: • 0.5 nM recombinant human cathepsin S from E. coli (Calbiochem #219343), 20 μM Z-Val-Val-Arg-AMC (Bachem #I-1540) as substrate in 50 mM MES, 2 mM EDTA, 0.05% Brij 35, 2.5 mM L-cysteine, pH 6.0, room temperature. • The results of the in vitro determination are indicated in Table 1. The following abbreviations are used in Table 1: • In the “Calpain activity” column, +++ stands for a calpain Ki (Ki(calpain)) of ≦40 nM, and ++ means: 40 nM<Ki(Calpain)≦100 nM and + means 100 nM<Ki(Calpain)≦300 nM. • The “Sel. cat. B” column indicates the Ki(cathepsin B)/Ki(calpain) ratio. In this connection, ++ means a Ki(cathepsin B)/Ki(calpain) ratio of ≧30 and + means 10≦Ki(cathepsin B)/Ki(calpain)<30. • The “Sel. cat. K” column indicates the Ki(cathepsin K)/Ki(calpain) ratio. In this connection, ++ means a Ki(cathepsin K)/Ki(calpain) ratio of ≧30 and + means 10≦Ki(cathepsin K)/Ki(calpain)<30. • The “Sel. cat. L” column indicates the Ki(cathepsin L)/Ki(calpain) ratio. In this connection, ++ means a Ki(cathepsin L)/Ki(calpain) ratio of ≧50 and + means 30≦Ki(cathepsin L)/Ki(calpain)<50. • The “Sel. cat. S” column indicates the Ki(cathepsin S)/Ki(calpain) ratio. In this connection, ++ means a Ki(cathepsin S)/Ki(calpain) ratio of ≧100 and + means 50≦Ki(cathepsin S)/Ki(calpain)<100.
# [3] = Cytosolic clearance in cynomolgus monkey liver cytosol; assay type: in vitro ADME; details: female; 0.5 μM compound, 1 mg/ml cynomolgus monkey liver cytosol, 37° C., pH 7.5; read-out: cyno cytCL (cytosolic clearance)
# [4] = molecular target: T2, cathepsin L isolated from human liver (Homo sapiens, UniProt P07711); experiment: Cathepsin L enzyme inhibition in vitro, kinetic fluorescence assay (selectivity vs calpain); assay type: biochemical; details: ratio of Ki values; Z-Phe-Arg-AMC substrate, pH 6.0
# T2 construct: 1 nM cathepsin L—isolated from human liver (Calbiochem #219402); purchased Calbiochem 219402; host or cells: human liver (natural source)
# Description: as §1
# [5] = molecular target: T3, cathepsin B isolated from human liver (Homo sapiens, UniProt P07858); experiment: Cathepsin B enzyme inhibition in vitro, kinetic fluorescence assay (selectivity vs calpain); assay type: biochemical; details: ratio of Ki values; Z-Phe-Arg-AMC substrate, pH 6.0
# T3 construct: 0.25 nM cathepsin B—isolated from human liver (Calbiochem #219362); purchased Calbiochem 219362; host or cells: human liver (natural source)
# Description: as §1
# [6] = molecular target: T4, recombinant human cathepsin S (Homo sapiens, UniProt P25774); experiment: Cathepsin S enzyme inhibition in vitro, kinetic fluorescence assay (selectivity vs calpain); assay type: biochemical; details: ratio of Ki values; Z-Val-Val-Arg-AMC substrate, pH 6.0
# T4 construct: purchased Calbiochem 219343; host or cells: E. coli
# Description: as §1
# [7] = molecular target: T5, cathepsin K activated from recombinant human procathepsin K (Homo sapiens, UniProt P43235); experiment: Cathepsin K enzyme inhibition in vitro, kinetic fluorescence assay (selectivity vs calpain); assay type: biochemical; details: ratio of Ki values; Z-Gly-Pro-Arg-AMC substrate, pH 6.0
# T5 construct: purchased Calbiochem 342001; host or cells: E. coli
# T5 sequence (P43235 115-329): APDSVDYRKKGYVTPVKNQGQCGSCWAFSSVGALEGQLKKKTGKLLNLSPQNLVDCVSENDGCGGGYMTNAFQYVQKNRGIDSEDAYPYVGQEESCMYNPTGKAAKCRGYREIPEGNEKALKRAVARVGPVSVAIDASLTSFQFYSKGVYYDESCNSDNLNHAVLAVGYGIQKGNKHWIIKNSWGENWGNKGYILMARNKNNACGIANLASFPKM
# Description: as §1
# T2 sequence (P07711 114-333): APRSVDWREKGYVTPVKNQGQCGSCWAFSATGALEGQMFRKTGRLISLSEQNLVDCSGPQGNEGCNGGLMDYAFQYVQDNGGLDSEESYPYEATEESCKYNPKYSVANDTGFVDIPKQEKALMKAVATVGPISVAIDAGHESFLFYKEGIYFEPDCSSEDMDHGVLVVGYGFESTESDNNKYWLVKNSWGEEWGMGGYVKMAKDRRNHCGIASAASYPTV
# T4 sequence (P25774 115-331): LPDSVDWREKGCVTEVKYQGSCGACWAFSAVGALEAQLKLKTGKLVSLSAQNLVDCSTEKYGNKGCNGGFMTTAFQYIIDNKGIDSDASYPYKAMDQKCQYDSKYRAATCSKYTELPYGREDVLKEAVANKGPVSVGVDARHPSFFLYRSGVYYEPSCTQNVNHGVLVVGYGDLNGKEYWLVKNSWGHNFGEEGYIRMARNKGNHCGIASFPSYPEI
smiles,measurement,setting,value
"CONC(=O)C(=O)C(Cc1ccccc1)NC(=O)c1cccnc1-c1csc(-c2ccccc2)n1 (stereo not drawn) [Example 14, N-(4-(Methoxyamino)-3,4-dioxo-1-phenylbutan-2-yl)-2-(2-phenylthiazol-4-yl)nicotinamide]",microsomal CLint at 0.5 μM,[1],< 14 µL/min/mg
same,Ki,[2],100 to 300 nM
same,microsomal CLint at 0.5 μM,[3],< 18 µL/min/mg
"NC(=O)C(=O)C(Cc1ccccc1)NC(=O)c1cccnc1-c1csc(-c2cccc(C(F)(F)F)c2)n1 (stereo not drawn) [Example 6, N-(4-Amino-3,4-dioxo-1-phenylbutan-2-yl)-2-{2-[3-(trifluoromethyl)phenyl]-1,3-thiazol-4-yl}pyridine-3-carboxamide]",Sel cat. L (Ki(cathepsin L)/Ki(calpain) ratio),[4],++ (++ means a Ki(cathepsin L)/Ki(calpain) ratio of ≧50)
same,Ki,[2],≤ 40 nM
same,Sel cat. B (Ki(cathepsin B)/Ki(calpain) ratio),[5],++ (++ means a Ki(cathepsin B)/Ki(calpain) ratio of ≧30)
same,Sel cat. S (Ki(cathepsin S)/Ki(calpain) ratio),[6],++ (++ means a Ki(cathepsin S)/Ki(calpain) ratio of ≧100)
same,Sel cat. K (Ki(cathepsin K)/Ki(calpain) ratio),[7],+ (+ means 10≦Ki(cathepsin K)/Ki(calpain)<30)
"NC(=O)C(=O)C(Cc1ccccc1)NC(=O)c1cccnc1-c1csc(-c2ccc3ccccc3c2)n1 (stereo not drawn) [Example 9, N-(4-Amino-3,4-dioxo-1-phenylbutan-2-yl)-2-[2-(naphthalen-2-yl)-1,3-thiazol-4-yl]pyridine-3-carboxamide]",Sel cat. L (Ki(cathepsin L)/Ki(calpain) ratio),[4],++ (++ means a Ki(cathepsin L)/Ki(calpain) ratio of ≧50)
same,Ki,[2],40 to 100 nM
same,Sel cat. B (Ki(cathepsin B)/Ki(calpain) ratio),[5],++ (++ means a Ki(cathepsin B)/Ki(calpain) ratio of ≧30)
same,Sel cat. S (Ki(cathepsin S)/Ki(calpain) ratio),[6],++ (++ means a Ki(cathepsin S)/Ki(calpain) ratio of ≧100)
same,Sel cat. K (Ki(cathepsin K)/Ki(calpain) ratio),[7],+ (+ means 10≦Ki(cathepsin K)/Ki(calpain)<30)
"O=C(NC1CC1)C(=O)C(Cc1ccccc1)NC(=O)c1cccnc1-c1csc(-c2ccccc2)n1 (stereo not drawn) [Example 13, N-(4-(Cyclopropylamino)-3,4-dioxo-1-phenylbutan-2-yl)-2-(2-phenylthiazol-4-yl)nicotinamide]",microsomal CLint at 0.5 μM,[1],< 14 µL/min/mg
same,Sel cat. L (Ki(cathepsin L)/Ki(calpain) ratio),[4],+ (+ means 30≦Ki(cathepsin L)/Ki(calpain)<50)
same,Ki,[2],100 to 300 nM
same,Sel cat. B (Ki(cathepsin B)/Ki(calpain) ratio),[5],++ (++ means a Ki(cathepsin B)/Ki(calpain) ratio of ≧30)
same,Sel cat. K (Ki(cathepsin K)/Ki(calpain) ratio),[7],+ (+ means 10≦Ki(cathepsin K)/Ki(calpain)<30)
same,microsomal CLint at 0.5 μM,[3],< 18 µL/min/mg
"NC(=O)C(=O)C(Cc1ccccc1)NC(=O)c1cccnc1-c1csc(-c2ccccc2)n1 (stereo not drawn) [Example 7, N-(4-Amino-3,4-dioxo-1-phenylbutan-2-yl)-2-(2-phenyl-1,3-thiazol-4-yl)pyridine-3-carboxamide]",Sel cat. L (Ki(cathepsin L)/Ki(calpain) ratio),[4],++ (++ means a Ki(cathepsin L)/Ki(calpain) ratio of ≧50)
same,Ki,[2],≤ 40 nM
same,Sel cat. B (Ki(cathepsin B)/Ki(calpain) ratio),[5],++ (++ means a Ki(cathepsin B)/Ki(calpain) ratio of ≧30)
same,Sel cat. S (Ki(cathepsin S)/Ki(calpain) ratio),[6],++ (++ means a Ki(cathepsin S)/Ki(calpain) ratio of ≧100)
same,Sel cat. K (Ki(cathepsin K)/Ki(calpain) ratio),[7],+ (+ means 10≦Ki(cathepsin K)/Ki(calpain)<30)
